Data: patent US20240173302A1, “TREATMENT OF INFLAMMATORY DISEASES” (DIMERIX BIOSCIENCE PTY LTD, priority 2021, published 2024)
“Also recorded” adds a separate entry of the source.

Legend:
[1] = target: T1, ETAR and CCR2 heteromer (Homo sapiens, UniProt P25101+P41597); test: Receptor-HIT BRET β-arrestin recruitment assay, ETAR/Rluc8+Barr2/Venus+CCR2; type: cell-based; settings: HEK293FT cells; for hyperactivation of β-arrestin recruitment to ETAR (ligand-induced BRET): both CCL2/MCP-1 and ET-1 present; for agonist-induced β-arrestin recruitment to ETAR (ligand-induced BRET): no antagonist
T1 construct: expressed in transfected cells; host or cells: HEK293FT
T1 sequence (P25101 21-427): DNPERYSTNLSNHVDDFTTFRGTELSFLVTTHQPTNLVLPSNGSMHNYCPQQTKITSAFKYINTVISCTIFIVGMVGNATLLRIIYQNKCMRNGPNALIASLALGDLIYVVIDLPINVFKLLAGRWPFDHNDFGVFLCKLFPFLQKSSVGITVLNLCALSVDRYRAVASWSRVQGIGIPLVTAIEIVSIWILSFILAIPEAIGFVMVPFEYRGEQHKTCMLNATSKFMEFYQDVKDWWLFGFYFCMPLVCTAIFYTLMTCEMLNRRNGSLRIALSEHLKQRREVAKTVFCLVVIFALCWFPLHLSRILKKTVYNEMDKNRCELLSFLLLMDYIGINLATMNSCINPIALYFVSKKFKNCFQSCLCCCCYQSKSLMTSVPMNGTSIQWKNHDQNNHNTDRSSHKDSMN
T1 sequence (P41597 whole entry): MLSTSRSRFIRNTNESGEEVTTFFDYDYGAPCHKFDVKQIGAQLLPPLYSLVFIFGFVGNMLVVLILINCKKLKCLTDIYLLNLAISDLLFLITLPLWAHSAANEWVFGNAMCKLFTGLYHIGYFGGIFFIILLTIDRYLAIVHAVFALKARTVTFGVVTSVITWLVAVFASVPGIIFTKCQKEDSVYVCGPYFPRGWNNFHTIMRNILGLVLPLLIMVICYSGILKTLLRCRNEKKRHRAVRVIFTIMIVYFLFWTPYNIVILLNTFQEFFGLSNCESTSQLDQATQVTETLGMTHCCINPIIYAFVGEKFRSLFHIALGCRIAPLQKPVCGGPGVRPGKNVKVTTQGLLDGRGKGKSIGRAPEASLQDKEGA
Method: HEK293FT cells were seeded in 6-well plates at a density of approximately 700,000 cells/well and maintained at 37° C., 5% CO2 in Complete Media (DMEM containing 0.3 mg/ml glutamine, 100 IU/ml penicillin and 100 μg/ml streptomycin (Thermo Fisher)) supplemented with 10% fetal calf serum (FCS; Bovogen). Transient transfections were carried out 24 h after seeding using FuGene6 (Promega) according to manufacturer instructions. 24 h post-transfection, cells were washed with PBS, detached using 0.05% trypsin/0.53 mM EDTA, resuspended in phenol red free Complete Media containing 5% FCS and added to a poly-L-lysine-coated white 96-well microplate (Greiner Bio-One). 48 h post-transfection, bioluminescence resonance energy transfer (BRET) assays were carried out following pre-incubation of cells with EnduRen™ (Promega) at a final concentration of 30 μM, at 37° ° C., 5% CO2 for 2 h. BRET measurements were taken at 37° C. using the CLARIOstar (BMG Labtech). Filtered light emissions were sequentially measured for 1 s in each of the ‘donor wavelength window’ (410-490 nm) and ‘acceptor wavelength window’ (520-620 nm).
For antagonist assays, cells were pre-incubated in EnduRen for 2 h. The antagonists (10 μM) were added and the assay was read for 30 min. Subsequently, the agonists (CXCL8 10 nM, AngII 100 nM) were added and the measurements continued for another 1 h.
The BRET signal observed between interacting proteins is normalized by subtracting the background BRET ratio. This can be done in one of two ways (see Pfleger et al. (2006) Cell Signal 18:1664-1670; Pfleger et al. (2006) Nat Protoc 1:336-344): 1) the ratio of the 520-550 nm emission over the 460-490 nm emission for a cell sample containing only the donor construct is subtracted from the same ratio for a sample containing the interacting acceptor and donor fusion proteins; 2) the ratio of the 520-550 nm emission over the 460-490 nm emission for a cell sample treated with vehicle is subtracted from the same ratio for a second aliquot of the same cell sample treated with ligand. In the following examples, the second calculation will be used and the signal is described as ‘ligand-induced BRET’.
The Receptor-Heteromer Investigation Technology (Receptor-HIT) is an assay configuration that provides insights into receptor complexes (Ayoub et al. (2015) PLOS One 10(3):e0119803). It is also known as GPCR-HIT when assessing GPCRs. It is an assay configuration whereby one receptor (eg. CCR2) is labelled with one component (eg. Renilla luciferase variant Rluc8) of a proximity-based reporter system (eg. BRET), the complementary component of which (eg. yellow fluorescent protein Venus) is fused to a receptor interacting partner (eg. β-arrestin 2). Treatment with a ligand (eg. AngII) selective for the receptor untagged with respect to the BRET assay (eg. hemagglutinin epitope-tagged AT1R; HA-AT1R) results in modulation of the proximity of the BRET-tagged receptor and the interacting partner, resulting in a change in BRET signal that is indicative of functional interaction between the two receptors.

[2] = system: CCR2 in the presence of unlabelled ETAR; test: Receptor-HIT BRET β-arrestin recruitment assay, CCR2/Rluc8+Barr2/Venus+HA-ETAR; type: cell-based, human; settings: HEK293FT cells

| Compound | β-arrestin recruitment to ETAR stimulated with ET-1 (ligand-induced BRET) ([1]; ET-1 alone, antagonists 10 μM) | hyperactivation of β-arrestin recruitment to ETAR (ligand-induced BRET) ([1]; antagonists 10 μM) | hyperactivation of β-arrestin recruitment to ETAR (ligand-induced BRET) ([1]; antagonists 10 μM, listed as sparsentan) | increased recruitment of β-arrestin to CCR2 (ligand-induced BRET) ([2]; CCL2/MCP-1 and ET-1 present, antagonists 10 μM) | agonist-induced β-arrestin recruitment to ETAR (ligand-induced BRET) [1] | agonist-induced β-arrestin recruitment to ETAR (ligand-induced BRET) ([1]; listed as CCL2) | agonist-induced β-arrestin recruitment to ETAR (ligand-induced BRET) ([1]; listed as CCL2/MCP1) | agonist-induced β-arrestin recruitment to CCR2 (ligand-induced BRET) ([2]; no antagonist) |
| --- | --- | --- | --- | --- | --- | --- | --- | --- |
| CCCCC1=NC2(CCCC2)C(=O)N1Cc1ccc(-c2ccccc2S(=O)(=O)Nc2noc(C)c2C)c(COCC)c1 [Sparsentan, 2-[4-[(2-butyl-4-oxo-1,3-diazaspiro[4.4]non-1-en-3-yl)methyl]-2-(ethoxymethyl)phenyl]-N-(4,5-dimethyl-1,2-oxazol-3-yl)benzenesulfonamide] | inhibits this signalling independent of CCR2 activation | abrogate the hyperactivation when both CCL2/CMP-1 and ET-1 ligands are present but not cease recruitment of β-arrestin to ETAR | abrogated | increased recruitment of β-arrestin is not observed |  |  |  |  |
| endothelin-1 [ET-1] |  |  |  |  | β-arrestin is recruited to ETAR; also recorded: recruit β-arrestin at a low magnitude |  |  |  |
| monocyte chemoattractant protein-1 [CCL2/MCP-1] |  |  |  |  | β-arrestin is recruited to ETAR | β-arrestin recruitment to ETAR occurs | β-arrestin is recruited to ETAR | β-arrestin is recruited to CCR2 |
